From patent publication US11135228B2, “Cysteinyl-proresolving mediators that promote resolution of infection and organ protection” (THE BRIGHAM AND WOMEN'S HOSPITAL, priority 2014, dated 2021) come the findings set out here.

Entries after “also recorded” stand apart in the source; their conditions may differ.

For this assay, the system named is Human macrophages. Nature of the assay: Human macrophage efferocytosis of apoptotic PMN. It counts as cell-based. To be noted: 10 pM-100 nM, 15 min, then apoptotic PMN 45 min; planarian isolates likewise. Here is the method: Leukocyte phagocytosis: Macrophages were prepared from peripheral blood mononuclear cells (PBMC) purchased from Children's Hospital Blood Bank, Boston, and phagocytosis was assessed as in (11). Briefly, macrophages (5×10^4 cells,/well) were incubated with SCI (10 pM-100 nM), SCII (10 pM-100 nM), MaR1 (10 pM-100 nM), or vehicle (0.1% EtOH in DPBS) for 15 min at 37° C., then fluorescent labeled apoptotic cells were added and cells incubated 45 min at 37° C. Extracellular fluorescence was quenched using Trypan blue (1:15 dilution) and phagocytosis assessed using an M3 SpectraMax plate reader. In select experiments, macrophages (5×10^4 cells/well) or neutrophils (1×10^5 cells/well) were obtained from human healthy volunteers' peripheral blood as in (11) in accordance with Partners Human Research Committee Protocol (#1999P001297), and incubated with H2DCFDA (5 μM, 30 min, 37° C.), then with SCI (10 pM-100 nM), SCI (10 pM-100 nM) or vehicle (0.1% EtOH in DPBS, 15 min, 37° C.) and E. coli (1:50 leukocytes to E. coli, 45 min, 37° C.) Intracellular reactive oxygen species were determined by measuring fluorescence using an M3 SpectraMax plate reader. To assess bacterial phagocytosis, macrophages (5×10^4 cells/well) or neutrophils (1×10^5 cells/well) were incubated with SCI (10 pM-100 nM), SCII (10 pM-100 nM) or vehicle (0.1% EtOH in DPBS, 15 min, 37° C.), then incubated with BacLight Green (Molecular Probes) labeled E. coli (1:50 leukocytes to E. coli, 45 min, 37° C.), Extracellular fluorescence was quenched using Trypan blue (1:15 dilution), and phagocytosis assessed using an M3 SpectraMax plate reader.
In determined experiments, human macrophages were incubated with SC isolates from regenerating planaria for 15 min at 37° C., then fluorescent labeled apoptotic cells were added and efferocytosis was assessed as detailed above.
Macrophage bacterial phagocytosis, efferocytosis, and phagolysosontal acidification: Human macrophages were plated in 96-well plates (5×10^4 cells per well) for 24 h, and phagocytosis or efferocytosis was assessed as in (14). In brief, apoptotic PMNs were obtained by culturing cells overnight in PBS^−/− (5×10^6 cells/ml). Apoptotic human PMNs were labeled with bisbenzimide H33342 trihydrochloride (Sigma-Aldrich). Human macrophages were incubated with 0.1-10 nM concentration of test products, and then labeled apoptotic PMNs were cocultured with macrophages for 40 min [37° C. […]]. Fluorescence was read on a SpectraMax M3 plate reader (Molecular Devices, Sunnyvale, Calif., USA), and results were analyzed using SoftMax Pro (Molecular Devices).

Take “13-glutathionyl, 14-hydroxy-docosahexaenoic acid [SCI]”: the “macrophage efferocytosis of apoptotic cells” value is “dose-dependently increased; also recorded: Stimulates human”.
As to `CCC=CCC=CCC(O)C(C=CC=CC=CCC=CCCC(=O)O)SCC(N)C(=O)NCC(=O)O` (centres unmarked) [SCII, 13-cysteinylglycinyl, 14-hydroxy-docosahexaenoic acid], the “macrophage efferocytosis of apoptotic cells” value is recorded as “dose-dependently increased; also recorded: Stimulates human”.
